Measurements taken from PubChem BioAssay AID2060486 (Molecular Pharmacology Branch, DTP, NCI, 2025).

Test system: IGROV1 complex spheroids (HUVEC, MSC), viability % test/control
Assay: Anticancer human tumor IGROV1 cell line growth inhibition [GQUAD];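 further: spheroids exposed to compounds for 7 days before readout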;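 on viability, T/C: 100% = DMSO vehicle control viability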
Details: for IC50: curve of first compound; for viability, T/C: stronger effect = lower value
In short: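 Multi-cell-type spheroids of tumor cells with HUVEC and mesenchymal stem cells, treated with drug combinations. Concentrations descend in half-log steps from near clinical Cmax, or from 10 microM where Cmax is unknown; viability read-out.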

[1] = second compound 0.0316 µM, first compound 0.0316 µM
[2] = second compound 0.0316 µM, first compound 0.1 µM
[3] = second compound 0.0316 µM, first compound 0.316 µM
[4] = second compound 0.0316 µM, first compound 1 µM
[5] = second compound 0.0316 µM, first compound 3.16 µM
[6] = second compound 0.0316 µM, first compound 10 µM
[7] = second compound 0.1 µM, first compound 0.0316 µM
[8] = second compound 0.1 µM, first compound 0.1 µM
[9] = second compound 0.1 µM, first compound 0.316 µM
[10] = second compound 0.1 µM, first compound 1 µM
[11] = second compound 0.1 µM, first compound 3.16 µM
[12] = second compound 0.1 µM, first compound 10 µM
[13] = second compound 0.316 µM, first compound 0.0316 µM
[14] = second compound 0.316 µM, first compound 0.1 µM
[15] = second compound 0.316 µM, first compound 0.316 µM
[16] = second compound 0.316 µM, first compound 1 µM
[17] = second compound 0.316 µM, first compound 3.16 µM
[18] = second compound 0.316 µM, first compound 10 µM
[19] = second compound 1 µM, first compound 0.0316 µM
[20] = second compound 1 µM, first compound 0.1 µM
[21] = second compound 1 µM, first compound 0.316 µM
[22] = second compound 1 µM, first compound 1 µM
[23] = second compound 1 µM, first compound 3.16 µM
[24] = second compound 1 µM, first compound 10 µM
[25] = second compound 3.16 µM, first compound 0.0316 µM
[26] = second compound 3.16 µM, first compound 0.1 µM
[27] = second compound 3.16 µM, first compound 0.316 µM
[28] = second compound 3.16 µM, first compound 1 µM
[29] = second compound 3.16 µM, first compound 3.16 µM
[30] = second compound 3.16 µM, first compound 10 µM
[31] = second compound 10 µM, first compound 0.0316 µM
[32] = second compound 10 µM, first compound 0.1 µM
[33] = second compound 10 µM, first compound 0.316 µM
[34] = second compound 10 µM, first compound 1 µM
[35] = second compound 10 µM, first compound 3.16 µM
[36] = second compound 10 µM, first compound 10 µM

Cc1cccc(N(C)C(=O)C2C(O)CCN2c2nc(C)cc(C(F)(F)F)c2C#N)c1 (stereo unspecified) + Cc1cnc(CNC(=O)c2c(=O)c3ccc(N4CCCN(C)CC4)nc3n3c2sc2ccccc23)cn1
IC50 (second compound 0.0316 µM): > 10000 nM
IC50 (second compound 0.1 µM): < 31.6 nM
IC50 (second compound 0.316 µM): < 31.6 nM
IC50 (second compound 1 µM): < 31.6 nM
IC50 (second compound 3.16 µM): < 31.6 nM
IC50 (second compound 10 µM): < 31.6 nM
viability, T/C [1]: 66.2%
viability, T/C [2]: 68%
viability, T/C [3]: 65.6%
viability, T/C [4]: 42%
viability, T/C [5]: 76.5%
viability, T/C [6]: 63%
viability, T/C [7]: 45.2%
viability, T/C [8]: 38.2%
viability, T/C [9]: 38.2%
viability, T/C [10]: 31.6%
viability, T/C [11]: 39.6%
viability, T/C [12]: 34.5%
viability, T/C [13]: 24.8%
viability, T/C [14]: 23.1%
viability, T/C [15]: 20.6%
viability, T/C [16]: 26.8%
viability, T/C [17]: 29.3%
viability, T/C [18]: 17.3%
viability, T/C [19]: 12.8%
viability, T/C [20]: 9.76%
viability, T/C [21]: 20.4%
viability, T/C [22]: 14.9%
viability, T/C [23]: 21.1%
viability, T/C [24]: 17.1%
viability, T/C [25]: 11.1%
viability, T/C [26]: 11.2%
viability, T/C [27]: 13.9%
viability, T/C [28]: 12.8%
viability, T/C [29]: 13.4%
viability, T/C [30]: 10.1%
viability, T/C [31]: 8.57%
viability, T/C [32]: 9.75%
viability, T/C [33]: 7.75%
viability, T/C [34]: 10.5%
viability, T/C [35]: 14.8%
viability, T/C [36]: 11.7%

Cn1ncnc1[C@H]1c2n[nH]c(=O)c3cc(F)cc(c23)N[C@@H]1c1ccc(F)cc1 + Cc1cnc(CNC(=O)c2c(=O)c3ccc(N4CCCN(C)CC4)nc3n3c2sc2ccccc23)cn1
IC50 (second compound 0.0316 µM): 21.9 nM
IC50 (second compound 0.1 µM): < 0.999 nM
IC50 (second compound 0.316 µM): < 0.999 nM
IC50 (second compound 1 µM): < 0.999 nM
IC50 (second compound 3.16 µM): < 0.999 nM
IC50 (second compound 10 µM): < 0.999 nM
viability, T/C (second compound 0.0316 µM, first compound 0.000999 µM): 73.9%
viability, T/C (second compound 0.0316 µM, first compound 0.00316 µM): 67.1%
viability, T/C (second compound 0.0316 µM, first compound 0.00999 µM): 60%
viability, T/C [1]: 41%
viability, T/C (second compound 0.0316 µM, first compound 0.0999 µM): 38.5%
viability, T/C [3]: 19.3%
viability, T/C (second compound 0.1 µM, first compound 0.000999 µM): 44.2%
viability, T/C (second compound 0.1 µM, first compound 0.00316 µM): 34.8%
viability, T/C (second compound 0.1 µM, first compound 0.00999 µM): 30.9%
viability, T/C [7]: 21.6%
viability, T/C (second compound 0.1 µM, first compound 0.0999 µM): 21.6%
viability, T/C [9]: 19%
viability, T/C (second compound 0.316 µM, first compound 0.000999 µM): 29.5%
viability, T/C (second compound 0.316 µM, first compound 0.00316 µM): 18.9%
viability, T/C (second compound 0.316 µM, first compound 0.00999 µM): 20.2%
viability, T/C [13]: 16.8%
viability, T/C (second compound 0.316 µM, first compound 0.0999 µM): 16.5%
viability, T/C [15]: 12.4%
viability, T/C (second compound 1 µM, first compound 0.000999 µM): 17.3%
viability, T/C (second compound 1 µM, first compound 0.00316 µM): 11%
viability, T/C (second compound 1 µM, first compound 0.00999 µM): 14.8%
viability, T/C [19]: 14%
viability, T/C (second compound 1 µM, first compound 0.0999 µM): 12.7%
viability, T/C [21]: 12.1%
viability, T/C (second compound 3.16 µM, first compound 0.000999 µM): 11.3%
viability, T/C (second compound 3.16 µM, first compound 0.00316 µM): 8.42%
viability, T/C (second compound 3.16 µM, first compound 0.00999 µM): 10.4%
viability, T/C [25]: 13.2%
viability, T/C (second compound 3.16 µM, first compound 0.0999 µM): 9.17%
viability, T/C [27]: 7.53%
viability, T/C (second compound 10 µM, first compound 0.000999 µM): 8.16%
viability, T/C (second compound 10 µM, first compound 0.00316 µM): 10%
viability, T/C (second compound 10 µM, first compound 0.00999 µM): 10.5%
viability, T/C [31]: 9.96%
viability, T/C (second compound 10 µM, first compound 0.0999 µM): 10.5%
viability, T/C [33]: 8.19%

O=C(c1cc(Cc2n[nH]c(=O)c3ccccc23)ccc1F)N1CCN(C(=O)C2CC2)CC1 + Cc1cnc(CNC(=O)c2c(=O)c3ccc(N4CCCN(C)CC4)nc3n3c2sc2ccccc23)cn1
IC50 (second compound 0.0316 µM): 1610 nM
IC50 (second compound 0.1 µM): < 31.6 nM
IC50 (second compound 0.316 µM): < 31.6 nM
IC50 (second compound 1 µM): < 31.6 nM
IC50 (second compound 3.16 µM): < 31.6 nM
IC50 (second compound 10 µM): < 31.6 nM
viability, T/C [1]: 58.6%
viability, T/C [2]: 73%
viability, T/C [3]: 53.6%
viability, T/C [4]: 55.8%
viability, T/C [5]: 43.5%
viability, T/C [6]: 20.8%
viability, T/C [7]: 42.1%
viability, T/C [8]: 39.9%
viability, T/C [9]: 34%
viability, T/C [10]: 27.9%
viability, T/C [11]: 24.2%
viability, T/C [12]: 17.8%
viability, T/C [13]: 22.4%
viability, T/C [14]: 27.7%
viability, T/C [15]: 24%
viability, T/C [16]: 23.5%
viability, T/C [17]: 16.9%
viability, T/C [18]: 18.1%
viability, T/C [19]: 14.4%
viability, T/C [20]: 17.3%
viability, T/C [21]: 18.9%
viability, T/C [22]: 16.9%
viability, T/C [23]: 16%
viability, T/C [24]: 12.9%
viability, T/C [25]: 9.91%
viability, T/C [26]: 10.6%
viability, T/C [27]: 10.1%
viability, T/C [28]: 10.6%
viability, T/C [29]: 11.1%
viability, T/C [30]: 10.5%
viability, T/C [31]: 8.62%
viability, T/C [32]: 11.4%
viability, T/C [33]: 9.01%
viability, T/C [34]: 8.13%
viability, T/C [35]: 9.75%
viability, T/C [36]: 9.07%
